Results published in patent US10414774B2, “Compound useful for altering the levels of bile acids for the treatment of diabetes and cardiometabolc disease” (Merck Sharp & Dohme Corp., priority 2016, dated 2019).
Like-named read-outs stand apart in the source and are kept apart here.

Biological target: T1, Human CYP8B1 (Homo sapiens, UniProt Q9UNU6)
T1 sequence (Q9UNU6 1-501): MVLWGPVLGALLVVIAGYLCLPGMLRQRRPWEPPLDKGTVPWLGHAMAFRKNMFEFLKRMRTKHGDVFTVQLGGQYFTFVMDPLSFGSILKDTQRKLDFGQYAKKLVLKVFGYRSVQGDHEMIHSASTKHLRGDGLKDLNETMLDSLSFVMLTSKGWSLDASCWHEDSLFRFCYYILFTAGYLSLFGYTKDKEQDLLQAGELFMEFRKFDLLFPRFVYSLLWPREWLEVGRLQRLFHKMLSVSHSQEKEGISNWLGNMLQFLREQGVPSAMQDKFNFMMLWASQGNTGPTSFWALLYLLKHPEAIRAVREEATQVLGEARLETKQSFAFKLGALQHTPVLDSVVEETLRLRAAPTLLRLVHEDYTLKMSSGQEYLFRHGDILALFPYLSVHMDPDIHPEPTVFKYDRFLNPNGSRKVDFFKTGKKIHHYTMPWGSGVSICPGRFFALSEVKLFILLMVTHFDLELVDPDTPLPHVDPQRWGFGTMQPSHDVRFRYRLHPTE
Experiment: Human CYP8B1 Liver Microsome Assay
Details: substrate 7a-hydroxy-4-cholesten-3-one, NADPH, RapidFire MS detection of 7α,12α-dihydroxy-4-cholesten-3-one

[1] = Human CYP8B1 IC50, human liver microsomes
[2] = read-out: Human CYP8B1 IC50, human liver microsomes

Row | SMILES | IC50 [1] | IC50 [2]
1 | N#Cc1cnc2ccc(Cl)cc2c1C1CCC(C(=O)N2CCn3c(nnc3C(F)(F)F)C2)CC1 (mixture of isomers) [Example 124, 6-chloro-4-(4-{[3-(trifluoromethyl)-5,6-dihydro[1,2,4]triazolo[4,3-a]pyrazin-7(8H)-yl]carbonyl}cyclohexyl)quinoline-3-carbonitrile] | 110 nM | –
2 | C[C@@H]1CN(c2c(C#N)c(C(F)F)nc3ccc(Cl)cc23)CC[C@@H]1C(=O)N1CCn2c(nnc2C(F)(F)F)C1 (single isomer, unassigned) [Example 57a] | 41 nM | –
3 | C[C@H]1CN(c2c(C#N)c(C(F)F)nc3ccc(Cl)cc23)CC[C@H]1C(=O)N1CCn2c(nnc2C(F)(F)F)C1 (single isomer, unassigned) [Example 57b] | 1490 nM | –
4 | CC1CC(C(=O)N2CCn3c(nnc3C(F)(F)F)C2)CCN1c1c(C#N)cnc2ccc(Cl)cc12 (single isomer, unassigned) [Example 73a, 6-chloro-4-[(2R,4R) or (2S,4S)-2-methyl-4-{[3-(trifluoromethyl)-5,6-dihydro[1,2,4]triazolo[4,3-a]pyrazin-7(8H)-yl]carbonyl}piperidin-1-yl]quinoline-3-carbonitrile] | 6.4 nM | –
5 | CC1CC(C(=O)N2CCn3c(nnc3C(F)(F)F)C2)CCN1c1c(C#N)cnc2ccc(Cl)cc12 (single isomer, unassigned) [Example 73b, 6-chloro-4-[(2R,4R) or (2S,4S)-2-methyl-4-{[3-(trifluoromethyl)-5,6-dihydro[1,2,4]triazolo[4,3-a]pyrazin-7(8H)-yl]carbonyl}piperidin-1-yl]quinoline-3-carbonitrile] | 15 nM | –
6 | CC1CC(C(=O)N2CCn3c(nnc3C(F)(F)F)C2)CCN1c1c(C#N)cnc2ccc(Cl)cc12 (single isomer, unassigned) [Example 73c, 6-chloro-4-[(2R,4S) or (2S,4R)-2-methyl-4-{[3-(trifluoromethyl)-5,6-dihydro[1,2,4]triazolo[4,3-a]pyrazin-7(8H)-yl]carbonyl}piperidin-1-yl]quinoline-3-carbonitrile] | 16 nM | –
7 | CC1CC(C(=O)N2CCn3c(nnc3C(F)(F)F)C2)CCN1c1c(C#N)cnc2ccc(Cl)cc12 (single isomer, unassigned) [Example 73d, 6-chloro-4-[(2R,4S) or (2S,4R)-2-methyl-4-{[3-(trifluoromethyl)-5,6-dihydro[1,2,4]triazolo[4,3-a]pyrazin-7(8H)-yl]carbonyl}piperidin-1-yl]quinoline-3-carbonitrile] | 636 nM | –
8 | N#Cc1cnc2ccc(Cl)cc2c1N1CC[C@]2(C(=O)N3CCn4c(nnc4C(F)(F)F)C3)C[C@@H]2C1 (single isomer, unassigned) [Example 81a] | 1290 nM | –
9 | N#Cc1cnc2ccc(Cl)cc2c1N1CC[C@@]2(C(=O)N3CCn4c(nnc4C(F)(F)F)C3)C[C@H]2C1 (single isomer, unassigned) [Example 81b] | 1930 nM | –
10 | C[C@@H]1CN(c2c(C#N)cnc3ccc(Cl)cc23)CC[C@@H]1C(=O)N1CCn2c(nnc2C(F)(F)F)C1 (single isomer, unassigned) [Example 116a] | 0.4 nM | –
11 | C[C@@H]1CN(c2c(C#N)cnc3ccc(C(F)(F)F)cc23)CC[C@@H]1C(=O)N1CCn2c(nnc2C(F)(F)F)C1 (single isomer, unassigned) [Example 119a] | – | 41.4 nM
12 | C[C@H]1CN(c2c(C#N)cnc3ccc(C(F)(F)F)cc23)CC[C@H]1C(=O)N1CCn2c(nnc2C(F)(F)F)C1 (single isomer, unassigned) [Example 119b] | – | 0.3 nM
13 | CO[C@H]1CN(c2c(C#N)cnc3ccc(Cl)cc23)CCC1C(=O)N1CCn2c(nnc2C(F)(F)F)C1 (stereo in doubt) [Example 72d, 6-chloro-4-[(3R,4R)-3-methoxy-4-{[3-(trifluoromethyl)-5,6-dihydro[1,2,4]triazolo[4,3-a]pyrazin-7(8H)-yl]carbonyl}piperidin-1-yl]quinoline-3-carbonitrile] | 6140 nM | –
14 | C[C@@H]1CN(c2c(C#N)cnc3c(F)c(Cl)ccc23)CC[C@@H]1C(=O)N1CCn2c(nnc2C(F)(F)F)C1 [Example 1, 7-chloro-8-fluoro-4-[(3S,4S)-3-methyl-4-{[3-(trifluoromethyl)-5,6-dihydro[1,2,4]triazolo[4,3-a]pyrazin-7(8H)-yl]carbonyl}piperidin-1-yl]quinoline-3-carbonitrile] | 0.47 nM | –
15 | COc1ccc2c(N3CC[C@H](C(=O)N4CCn5c(nnc5C(F)(F)F)C4)[C@H](C)C3)c(C#N)cnc2c1F [Example 2, 8-fluoro-7-methoxy-4-[(3S,4S)-3-methyl-4-{[3-(trifluoromethyl)-5,6-dihydro[1,2,4]triazolo[4,3-a]pyrazin-7(8H)-yl]carbonyl}piperidin-1-yl]quinoline-3-carbonitrile] | 0.96 nM | –
16 | C[C@@H]1CN(c2c(C#N)cnc3c(C(F)F)cc(Cl)cc23)CC[C@@H]1C(=O)N1CCn2c(nnc2C(F)(F)F)C1 [Example 3, 6-chloro-8-(difluoromethyl)-4-[(3S,4S)-3-methyl-4-{[3-(trifluoromethyl)-5,6-dihydro[1,2,4]triazolo[4,3-a]pyrazin-7(8H)-yl]carbonyl}piperidin-1-yl]quinoline-3-carbonitrile] | 21 nM | –
17 | C[C@@H]1CN(c2c(C#N)cnc3cc(Br)ccc23)CC[C@@H]1C(=O)N1CCn2c(nnc2C(F)(F)F)C1 [Example 4, 7-bromo-4-[(3S,4S)-3-methyl-4-{[3-(trifluoromethyl)-5,6-dihydro[1,2,4]triazolo[4,5-a]pyrazin-7(8H)-yl]carbonyl}piperidin-1-yl]quinoline-3-carbonitrile] | 0.36 nM | –
18 | C[C@@H]1CN(c2c(C#N)cnc3cc(O)ccc23)CC[C@@H]1C(=O)N1CCn2c(nnc2C(F)(F)F)C1 [Example 5, 7-hydroxy-4-[(3S,4S)-3-methyl-4-{[3-(trifluoromethyl)-5,6-dihydro[1,2,4]triazolo[4,3-a]pyrazin-7(8H)-yl]carbonyl}piperidin-1-yl]quinoline-3-carbonitrile] | 1.4 nM | –
19 | C[C@@H]1CN(c2c(C#N)cnc3cc(F)ccc23)CC[C@@H]1C(=O)N1CCn2c(nnc2C(F)(F)F)C1 [Example 6, 7-fluoro-4-[(3S,4S)-3-methyl-4-{[3-(trifluoromethyl)-5,6-dihydro[1,2,4]triazolo[4,3-a]pyrazin-7(8H)-yl]carbonyl}piperidin-1-yl]quinoline-3-carbonitrile] | 2.1 nM | –
20 | C[C@@H]1CN(c2c(C#N)cnc3c(F)c(F)c(F)cc23)CC[C@@H]1C(=O)N1CCn2c(nnc2C(F)(F)F)C1 [Example 7, 6,7,8-trifluoro-4-[(3S,4S)-3-methyl-4-{[3-(trifluoromethyl)-5,6-dihydro[1,2,4]triazolo[4,3-a]pyrazin-7(8H)-yl]carbonyl}piperidin-1-yl]quinoline-3-carbonitrile] | 1.1 nM | –
21 | C[C@@H]1CN(c2c(C#N)cnc3c(F)c(F)ccc23)CC[C@@H]1C(=O)N1CCn2c(nnc2C(F)(F)F)C1 [Example 8, 7,8-difluoro-4-[(3S,4S)-3-methyl-4-{[3-(trifluoromethyl)-5,6-dihydro[1,2,4]triazolo[4,3-a]pyrazin-7(8H)-yl]carbonyl}piperidin-1-yl]quinoline-3-carbonitrile] | 1.3 nM | –
22 | COc1ccc2ncc(C#N)c(N3CC[C@H](C(=O)N4CCn5c(nnc5C(F)(F)F)C4)[C@H](C)C3)c2c1 [Example 9, 6-methoxy-4-[(3S,4S)-3-methyl-4-{[3-(trifluoromethyl)-5,6-dihydro[1,2,4]triazolo[4,3-a]pyrazin-7(8H)-yl]carbonyl}piperidin-1-yl]quinoline-3-carbonitrile] | 0.51 nM | –
23 | Cc1nc2c(F)cc(F)cc2c(N2CC[C@H](C(=O)N3CCn4c(nnc4C(F)(F)F)C3)[C@H](C)C2)c1C#N [Example 10, 6,8-difluoro-2-methyl-4-[(3S,4S)-3-methyl-4-{[3-(trifluoromethyl)-5,6-dihydro[1,2,4]triazolo[4,3-a]pyrazin-7(8H)-yl]carbonyl}piperidin-1-yl]quinoline-3-carbonitrile] | 2.8 nM | –
24 | COc1cccc2c(N3CC[C@H](C(=O)N4CCn5c(nnc5C(F)(F)F)C4)[C@H](C)C3)c(C#N)cnc12 [Example 11, 8-methoxy-4-[(3S,4S)-3-methyl-4-{[3-(trifluoromethyl)-5,6-dihydro[1,2,4]triazolo[4,3-a]pyrazin-7(8H)-yl]carbonyl}piperidin-1-yl]quinoline-3-carbonitrile] | 2.5 nM | –
25 | C[C@@H]1CN(c2c(C#N)cnc3c(F)cccc23)CC[C@@H]1C(=O)N1CCn2c(nnc2C(F)(F)F)C1 [Example 12, 8-fluoro-4-[(3S,4S)-3-methyl-4-{[3-(trifluoromethyl)-5,6-dihydro[1,2,4]triazolo[4,3-a]pyrazin-7(8H)-yl]carbonyl}piperidin-1-yl]quinoline-3-carbonitrile] | 1.1 nM | –
26 | C[C@@H]1CN(c2c(C#N)cnc3c(Cl)c(F)ccc23)CC[C@@H]1C(=O)N1CCn2c(nnc2C(F)(F)F)C1 [Example 13, 8-chloro-7-fluoro-4-[(3S,4S)-3-methyl-4-{[3-(trifluoromethyl)-5,6-dihdyro[1,2,4]triazolo[4,3-a]pyrazin-7(8H)-yl]carbonyl}piperidin-1-yl]quinoline-3-carbonitrile] | 3.3 nM | –
